According to US10624346B2, “Herbicidal composition and method for controlling weeds” (Sumitomo Chemical Company, Limited, priority 2016, dated 2020):

Legend:
Setaria faberi = assay: Greenhouse pot test, post-emergence spray, herbicidal effect (Examples 202, 203); format: in vivo; settings: sprayed at 2-3 leaf stage, one week
Description: (§1) A plastic pot was filled with a commercially-available culture soil, and thereto inubie (common barnyardgrass; Echinochloa crus-galli) or akinoenokorogusa (giant foxtail; […] When the weeds grew to two to three leaf stage, a spray liquid of the compound X, a spray liquid of dicamba diglycolamine salt, or a spray liquid of the present composition was uniformly sprayed to the whole plants so that the application rate might be a predetermined value. The spray liquid of the present composition was prepared by mixing the spray liquid of the compound X with the spray liquid of dicamba diglycolamine salt. The spray liquid of the compound X was prepared by mixing a predetermined amount of the formulation X with deionized water. […] After applying the spray liquid, the plants were placed in a greenhouse for a week. […] A plastic pot was filled with a commercially-available culture soil, and thereto inubie (common barnyardgrass; Echinochloa crus-galli) or akinoenokorogusa (giant foxtail; […] The spray liquid of the compound X was prepared by mixing a predetermined amount of the formulation X with deionized water. […] After applying the spray liquid, the plants were placed in a greenhouse for a week.

Echinochloa crus-galli = assay: as above; format: in vivo; settings: sprayed at 2-3 leaf stage, one week
Description: as §1

[1] = Compound X 5 g/ha alone, scale 0 (no effect) to 100 (completely dead)
[2] = Compound X 10 g/ha alone, scale 0-100
[3] = dicamba salt 50 g/ha alone, scale 0-100
[4] = dicamba salt 500 g/ha alone, scale 0-100

SMILES | Herbicidal effect on Setaria faberi (observed value) (Setaria faberi; [1]) | Herbicidal effect on Setaria faberi (observed value) (Setaria faberi; [2]) | Herbicidal effect on Echinochloa crus-galli (observed value) (Echinochloa crus-galli; [1]) | Herbicidal effect on Echinochloa crus-galli (observed value) (Echinochloa crus-galli; [2]) | Herbicidal effect on Setaria faberi (observed value) (Setaria faberi; [3]) | Herbicidal effect on Setaria faberi (observed value) (Setaria faberi; [4]) | Herbicidal effect on Echinochloa crus-galli (observed value) (Echinochloa crus-galli; [3]) | Herbicidal effect on Echinochloa crus-galli (observed value) (Echinochloa crus-galli; [4])
CCOC(=O)COc1ncccc1Oc1cc(-n2c(=O)cc(C(F)(F)F)n(C)c2=O)c(F)cc1Cl [Compound X, ethyl [3-[2-chloro-4-fluoro-5-(1-methyl-6-trifluoromethyl-2,4-dioxo-1,2,3,4-tetrahydropyrimidin-3-yl)phenoxy]-2-pyridyloxy]acetate] | 30 | 45 | 20 | 35 | – | – | – | –
COc1c(Cl)ccc(Cl)c1C(=O)O.NCCOCCO [dicamba diglycolamine salt] | – | – | – | – | 0 | 0 | 0 | 10
CN(CCCN)CCCN.COc1c(Cl)ccc(Cl)c1C(=O)O [dicamba BAPMA salt, dicamba N,N-bis(3-aminopropyl)methylamine salt] | – | – | – | – | 0 | 10 | 0 | 5
